Drawing on patent US20250171457A1, “NITROGEN-CONTAINING HETEROCYCLIC COMPOUND HAVING NRF2 ACTIVATION EFFECT” (CHUGAI SEIYAKU KABUSHIKI KAISHA, priority 2022, published 2025), this text covers EC50 and fold induction for twelve compounds.

Structures are written as SMILES. Where two headings read alike, the source gives them in different places.

For test [1], the system named is Nrf2 transcriptional activity (pARE-Luc reporter) in HepG2 cells. Nature of the test: In vitro Nrf2 transcriptional activity measurement by ARE-dependent reporter assay in HepG2 cell. Type of test: cell-based, human. The procedure, abridged:
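HepG2 cells transfected with pGL4.37 (pARE-Luc), replated onto compound and incubated 4 h at 37° C; luciferase read by Bright-Glo luminescence. Response normalized to 100% set by a reference compound at 3.75 μM; EC50 from dose-response curve.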
(In general: A reporter such as luciferase makes a cellular process visible.)

Test [2] concerns Nqo1 (NAD(P)H quinone dehydrogenase 1) mRNA, Nrf2 downstream molecule. The experiment in a line: In vivo Nrf2 transcriptional activity measurement (Nqo1 mRNA in organs by qPCR). Conditions: Mus musculus, C57BL/6J mice, 7 to 8 hours; for fold induction at 10 mg/kg / fold induction at 15 mg/kg: ip, Intraperitoneal; for fold induction at 30 mg/kg: Oral. As to the method:
Test Example 2: In Vivo Nrf2 Transcriptional Activity Measurement
A test compound (solvent: 10 vol % dimethyl sulfoxide/50 mM glycine/32 mM sodium hydroxide/physiological saline) was administered to C57BL/6J mice (7-8 weeks old), which were euthanized by whole blood collection under isoflurane anesthesia 7 to 8 hours later, followed by the collection of various organs. mRNA was purified from the collected organs, and the mRNA expression level of Mapk1 as an internal control and the mRNA expression level of Nqo1 (NAD(P)H quinone dehydrogenase 1) as a typical Nrf2 downstream molecule were each measured by qPCR. The Nqo1 mRNA expression level was quantified by comparative CT, and an expression level ratio to a non-administration group was calculated. The administration of the test compound elevated the Nqo1 mRNA expression level in the various organs, confirming that the test compound also has a Nrf2-activating effect in vivo.
A general note: Real-time PCR tracks product formation cycle by cycle.

Where [3] appears, read: Homo sapiens, HepG2 cells transfected with pARE-Luc, 4 hours at 37° C., luciferase activity of Example 1-54 or Example 17-23 at 3.75 μM defined as 100%.
The mark [4] stands for this setting: kidney, read-out: Nqo1 mRNA expression level ratio to non-administration group, Kidney.
Where [5] appears, read: liver, read-out: Nqo1 mRNA expression level ratio to non-administration group, Liver.
[6] abbreviates: lung, read-out: Nqo1 mRNA expression level ratio to non-administration group, Lung.

`CO[C@@H]1CN(c2cc(Cl)c(C(=O)N3COc4c(cccc4-c4cc(N5C6CCC5COC6)c(C(=O)O)cc4F)C3)c(Cl)c2)[C@@H]1C` [Compound 1-4, 4-[3-[2,6-Dichloro-4-[(2R,3R)-3-methoxy-2-methylazetidin-1-yl]benzoyl]-2,4-dihydro-1,3-benzoxazin-8-yl]-5-fluoro-2-(3-oxa-8-azabicyclo[3.2.1]octan-8-yl)benzoic acid] yielded an EC50 in test [1] (setting [3]) of 1.6 nM. The values for the fold induction at 10 mg/kg in test [2] (setting [4]), in test [2] (setting [5]) and in test [2] (setting [6]) were 4.4, 6.5 and 13, respectively. For the same compound, the fold induction at 30 mg/kg worked out at 5 in test [2] (setting [4]), 8.1 in test [2] (setting [5]) and 20 in test [2] (setting [6]).

In test [1] (setting [3]), `O=C(O)c1cc(F)c(-c2cccc3c2OCN(C(=O)c2c(Cl)cc(N4CC5(CCOCC5)C4)cc2Cl)C3)cc1N1C2CCC1COC2` [Compound 1-18, 4-[3-[2,6-Dichloro-4-(7-oxa-2-azaspiro[3.5]nonan-2-yl)benzoyl]-2,4-dihydro-1,3-benzoxazin-8-yl]-5-fluoro-2-(3-oxa-8-azabicyclo[3.2.1]octan-8-yl)benzoic acid] showed an EC50 of 4.3 nM. Also, the fold induction at 10 mg/kg was 2.5 in test [2] (setting [4]), 6 in test [2] (setting [5]) and 8.7 in test [2] (setting [6]).

For `O=C(O)c1cc(F)c(-c2cccc3c2OCN(C(=O)c2c(Cl)cc(N4CC5(CC(OC(F)F)C5)C4)cc2Cl)C3)cc1N1C2CCC1COC2` [Compound 1-21, 4-[3-[2,6-Dichloro-4-[6-(difluoromethoxy)-2-azaspiro[3.3]heptan-2-yl]benzoyl]-2,4-dihydro-1,3-benzoxazin-8-yl]-5-fluoro-2-(3-oxa-8-azabicyclo[3.2.1]octan-8-yl)benzoic acid], the EC50 in test [1] (setting [3]) turned out to be 2.9 nM. Moreover, the fold induction at 10 mg/kg stood at 3.7 in test [2] (setting [4]), 4.7 in test [2] (setting [5]) and 10 in test [2] (setting [6]).

Take `C[C@@H]1CN(C)CCN1c1cc(Cl)c(C(=O)N2COc3c(cccc3-c3cc(N4C5CCC4COC5)c(C(=O)O)cc3F)C2)c(Cl)c1` [Compound 1-33, 4-[3-[2,6-Dichloro-4-[(2R)-2,4-dimethylpiperazin-1-yl]benzoyl]-2,4-dihydro-1,3-benzoxazin-8-yl]-5-fluoro-2-(3-oxa-8-azabicyclo[3.2.1]octan-8-yl)benzoic acid]: the midpoint of the response in test [1] (HepG2 cells, pARE-Luc reporter, 4 hours, 100% = Example 1-54 or Example 17-23 at 3.75 μM (repeat print of Table 20-1)), the EC50, lay at 1.9 nM. Besides, the results for the fold induction at 10 mg/kg in test [2] (setting [4]), in test [2] (setting [5]) and in test [2] (setting [6]) were 3.7, 5.5 and 13, respectively. The figures for the fold induction at 30 mg/kg in test [2] (setting [4]), in test [2] (setting [5]) and in test [2] (setting [6]) were 5.1, 5.2 and 18, respectively.

Consider `COCCN1CCN(c2cc(Cl)c(C(=O)N3COc4c(cccc4-c4cc(N5CCOCC5)c(C(=O)O)cc4F)C3)c(Cl)c2)CC1` [Compound 1-54, 4-[3-[2,6-Dichloro-4-[4-(2-methoxyethyl)piperazin-1-yl]benzoyl]-2,4-dihydro-1,3-benzoxazin-8-yl]-5-fluoro-2-morpholin-4-ylbenzoic acid], for which the EC50 in test [1] (setting [3]) turned out to be 1.5 nM. Besides, the fold induction at 10 mg/kg in test [2] (setting [4]) worked out at 4.6; in test [2] (setting [5]) it was 6.7; in test [2] (setting [6]), 18. In addition, the values for the fold induction at 30 mg/kg in test [2] (setting [4]), in test [2] (setting [5]) and in test [2] (setting [6]) were 4.9, 7.4 and 20, respectively.

In test [1] (setting [3]), `COC1CC2(C1)CN(c1cc(Cl)c(C(=O)N3COc4c(cccc4-c4ccc(C(=O)O)c(N5C6CCC5COC6)c4)C3)c(Cl)c1)C2` [Compound 1-83, 4-[3-[2,6-Dichloro-4-(6-methoxy-2-azaspiro[3.3]heptan-2-yl)benzoyl]-2,4-dihydro-1,3-benzoxazin-8-yl]-2-(3-oxa-8-azabicyclo[3.2.1]octan-8-yl)benzoic acid] yielded an EC50 of 2.4 nM. Besides, the figures for the fold induction at 15 mg/kg in test [2] (setting [4]), in test [2] (setting [5]) and in test [2] (setting [6]) were 4.7, 6.5 and 21, respectively.

Take `O=C(O)c1cc(F)c(-c2cccc3c2OCN(C(=O)c2c(Cl)cc(N4CC5CC(C4)N5C4COC4)cc2Cl)C3)cc1N1C2CCC1COC2` [Compound 20-5, 4-[3-[2,6-Dichloro-4-[6-(oxetan-3-yl)-3,6-diazabicyclo[3.1.1]heptan-3-yl]benzoyl]-2,4-dihydro-1,3-benzoxazin-8-yl]-5-fluoro-2-(3-oxa-8-azabicyclo[3.2.1]octan-8-yl)benzoic acid]: in test [1] (setting [3]), a half-maximal response (EC50) required 75 nM.

Regarding `O=C(O)c1cc(F)c(-c2cccc3c2OCN(C(=O)c2c(Cl)cc(N4C5CC4CN(C4COC4)C5)cc2Cl)C3)cc1N1C2CCC1COC2` [Compound 20-6, 4-[3-[2,6-Dichloro-4-[3-(oxetan-3-yl)-3,6-diazabicyclo[3.1.1]heptan-6-yl]benzoyl]-2,4-dihydro-1,3-benzoxazin-8-yl]-5-fluoro-2-(3-oxa-8-azabicyclo[3.2.1]octan-8-yl)benzoic acid], the EC50 in test [1] (setting [3]) was found to be 48 nM.

In test [1] (setting [3]), `COCCN1C[C@@H]2C[C@H]1CN2c1cc(Cl)c(C(=O)N2COc3c(cccc3-c3cc(N4C5CCC4COC5)c(C(=O)O)cc3F)C2)c(Cl)c1` [Compound 20-7, 4-[3-[2,6-Dichloro-4-[(1S,4S)-5-(2-methoxyethyl)-2,5-diazabicyclo[2.2.1]heptan-2-yl]benzoyl]-2,4-dihydro-1,3-benzoxazin-8-yl]-5-fluoro-2-(3-oxa-8-azabicyclo[3.2.1]octan-8-yl)benzoic acid] showed an EC50 of 14 nM.

As for `O=C(O)c1cc(F)c(-c2cccc3c2OCN(C(=O)c2c(Cl)cc(N4CCNCC4)cc2Cl)C3)cc1N1C2CCC1COC2` [Compound 20-8, 4-[3-(2,6-Dichloro-4-piperazin-1-ylbenzoyl)-2,4-dihydro-1,3-benzoxazin-8-yl]-5-fluoro-2-(3-oxa-8-azabicyclo[3.2.1]octan-8-yl)benzoic acid], in test [1] (setting [3]), the EC50 came out at 18 nM.

`CN1CCN(c2cc(Cl)c(C(=O)N3COc4c(cccc4-c4cc(N5C6CCC5COC6)c(C(=O)O)cc4F)C3)c(Cl)c2)CC12CC2` [Compound 20-9, 4-[3-[2,6-Dichloro-4-(4-methyl-4,7-diazaspiro[2.5]octan-7-yl)benzoyl]-2,4-dihydro-1,3-benzoxazin-8-yl]-5-fluoro-2-(3-oxa-8-azabicyclo[3.2.1]octan-8-yl)benzoic acid] showed an EC50 in test [1] (setting [3]) of 14 nM.

`Cc1cnn(C2CN(c3cc(Cl)c(C(=O)N4COc5c(cccc5-c5cc(N6C7CCC6COC7)c(C(=O)O)cc5F)C4)c(Cl)c3)C2)c1` [Compound 20-13, 4-[3-[2,6-Dichloro-4-[3-(4-methylpyrazol-1-yl)azetidin-1-yl]benzoyl]-2,4-dihydro-1,3-benzoxazin-8-yl]-5-fluoro-2-(3-oxa-8-azabicyclo[3.2.1]octan-8-yl)benzoic acid]: a half-maximal effect in test [1] (setting [3]) (EC50) was put at 5.5 nM.

In general, EC50 refers to the concentration needed to bring the measured effect to its halfway point.
